Assay results taken from patent publication US12404252B2, “Salt of 2-amino-2-(2-(1-decyl-1H-1,2,3-triazol-4-yl)ethyl)propane-1,3-diol, and pharmaceutical composition containing same” (NEXTGEN BIOSCIENCE CO., LTD, priority 2021, dated 2025).
≈ marks a conversion by molar mass, not a printed value. Entries after “also recorded” stand apart in the source; their conditions may differ.

Key:
[1] = Effect on cardiovascular system in beagle dogs (telemetry); assay type: in vivo; settings: oral 12.5, 25, and 50 mg/kg
Description: Compound 1a was orally administered to four non-anesthetized and unrestrained male beagle dogs implanted with remote transmitters. Next, the heart rates of the four beagle dogs were measured to evaluate the effect of Compound 1a on the cardiovascular system, and whether abnormal symptoms occurred was visually checked.
In this experiment, the test substance was administered to each of the four beagle dogs in four steps. In the first administration step (0 mg/kg of Compound 1a), 0.5% MC aqueous solution as control vehicle was administered, and in the second administration step, 12.5 mg/kg of Compound 1a was administered. In the third administration step, 25 mg/kg of Compound 1a was administered, and in the fourth administration step, 50 mg/kg of Compound 1a was administered. The first to fourth administrations were performed at one-week intervals. Additionally, 0 hour before administration of the test substance, and 0.5 hours, 1 hour, 2 hours, 3 hours, 4 hours, 6 hours, 8 hours, 12 hours, and 24 hours after administration of the test substance, the heart rates of the beagle dogs were measured.

[2] = Standard stock solution stability, 60° C./75±5% RH; assay type: physicochemical; settings: 60° C./75% RH, Initial
Description: The stability of the crystalline compound was under 60° C./75±5% RH conditions, and the purity thereof was examined by HPLC method. The experimental conditions used in the stability test for Compound 1a and the test results are as follows.
60° C./75±5% RH: Conditions in which the vial was open and upright.
(§1) A required amount (˜1 mg) of solid material was dissolved in 1 mL of a diluent (1:1 methanol/water), and the prepared solution was analyzed by HPLC.

[3] = system: adenine-induced chronic kidney disease model; assay: Adenine-induced chronic kidney disease model; assay type: in vivo; settings: adenine-induced CKD mice, 3 weeks
Description: The antifibrotic effect of Compound 1a was evaluated using an adenine-induced chronic kidney disease model. 0.5% adenine (in 0.5% CMC) was orally administered to mice for 4 weeks to induce chronic kidney disease, and Compound 1a at 10, 30, and 90 mg/kg/day and the positive control substance telmisartan 10 mg/kg/day were administered orally to the mice for 3 weeks, followed by measurement of serum creatinine, serum BUN, and kidney hydroxyproline, and histopathology. In addition, the tubular-interstitial index value was determined based on the above measurement results.

Photostability test = assay type: physicochemical
Description: For a photostability test, 10 mg of Compound 1a was exposed to 1.2 million lux hours of ultraviolet and visible light at room temperature. For an oxidation stability test, 0.2 mL of 30% H2O2 and 1 mg of Compound 1a were placed in a 2-mL vial and stored at 25° C. for up to 24 hours. The photostability and oxidation stability conditions used to evaluate the fumarate salt of Compound 1 and the evaluation results are as follows.

[4] = Solubility in aqueous media (HPLC); assay type: physicochemical; settings: for solubility at 24 h: thermodynamic from solid
Description: The solubility of Compound 1a prepared in Example 1 was evaluated in several different media, including pH 1.2 hydrochloric acid buffer, pH 3.0 citrate buffer, pH 4.7 acetate buffer, pH 6.8 phosphate buffer, simulated gastric fluid, fasted-state simulated intestinal fluid, fed-state simulated intestinal fluid, and water. About 2.17 mg of sample (based on the free base of Compound 1) for each medium was taken into a 2-mL transparent glass vial and […] of medium was added (constituents of the salt were considered Compound 1: counterion=1:0.5; target concentration: 2 mg/mL). The mixture was stirred using a magnetic stirrer at 250 RPM for 24 hours at 25° C. Next, the pH and appearance of the mixture were recorded and the mixture was filtered through a MultiScreen® HTS-HV 96-well plate (manufactured by Merck; 0.45-μm hydrophilic, low-protein-binding Durapore® membrane). Solubility was determined using HPLC, and a calibration curve was created by injecting a known concentration of Compound 1a. The filtered sample was injected (diluted appropriately as necessary) and the concentration of Compound 1a (mg/mL) in the filtrate was calculated from the calibration curve (taking salt coefficient into account). The analysis results are as follows.

[5] = Hygroscopicity test by DVS; assay type: physicochemical
Description: Dynamic vapor sorption (DVS) is a method that has been used for a long time to investigate the interactions between active pharmaceutical ingredients (APIs), and pharmaceutical preparations and water. Here, to analyze the water absorption rate of a sample at a specific temperature, measurements are made by exposing the sample to the desired relative humidity using a DVS water sorption analyzer (hygroscopicity analyzer) until the change in weight of the sample stabilizes.

[6] = Standard stock solution stability, 40° C./75±5% RH; assay type: physicochemical; settings: 40° C./75% RH
Description: The stability of the crystalline compound was examined at 40° C./75±5% RH. Physical stability was examined through comparative XRPD analysis before and after the test, and chemical stability was examined by HPLC method. The experimental conditions used in the stability test for Compound 1a and the test results are as follows.
40° C./75±5% RH: Conditions in which the vial was open and upright.
as §1

[7] = system: alopecia areata model (C3H/HeJ); assay: Alopecia areata model (C3H/HeJ); assay type: in vivo; settings: C3H/HeJ mice, 30 mg/kg orally, 12 weeks
Description: The efficacy of Compound 1a against alopecia areata was evaluated using a model (C3H/HeJ) with spontaneous alopecia areata. The C3H/HeJ mice used in the test are animals that spontaneously develop alopecia areata with increasing age. […] 30 mg/kg of Compound 1a was administered orally to the mice for 12 weeks, and then disease-free ratio and AA lesion area were measured.

CCCCCCCCCCn1cc(CCC(N)(CO)CO)nn1 [Compound 1a, 2-amino-2-(2-(1-decyl-1H-1,2,3-triazol-4-yl)ethyl) propane-1,3-diol]
general symptoms (visual observation) [1]: no abnormal symptoms were observed
heart rate ([1]; up to 24 hours): no change in the heart rate
Purity % [2]: 99.11%
kidney hydroxyproline level compared to control group ([3]; 30 mg/kg/day orally): statistically significantly decreased
kidney fibrosis (tubular-interstitial index) ([3]; 90 mg/kg/day orally): statistically significantly decreased
serum BUN level ([3]; 90 mg/kg/day orally): 157.4 ± 32.3 mg/dL
serum creatinine level ([3]; 90 mg/kg/day orally): 0.90 ± 0.12 mg/dL
Purity % (Photostability test; Photostability 1.2 million lux hours exposed): 99.52%
Purity % (Photostability test; Photostability 1.2 million lux hours unexposed): 99.70%
Visual observation ([4]; 0.5% Methylcellulose, target 2 mg/mL): Clear solution
solubility at 24 h ([4]; 25 °C, all of the aqueous media except phosphate buffer (pH 6.8)): > 2000 µg/mL
Visual observation ([4]; FaSSIF (pH 6.5), target 2 mg/mL): Clear solution
Visual observation ([4]; FeSSIF (pH 5.8), target 2 mg/mL): Clear solution
Visual observation ([4]; SGF (pH 2.0), target 2 mg/mL): Clear solution
Visual observation ([4]; Water, target 2 mg/mL): Clear solution
solubility at 24 h ([4]; aqueous buffer, pH 3.0 Citrate buffer, 25° C., 24 hours, final pH 3.42): > 2000 µg/mL
solubility at 24 h ([4]; aqueous buffer, pH 4.7 Acetate buffer, 25° C., 24 hours, final pH 5.11): > 2000 µg/mL
solubility at 24 h ([4]; aqueous buffer, pH 6.8 Phosphate buffer, 25° C., 24 hours, final pH 6.94): 306 µg/mL (≈ 0.937 mM)
solubility at 24 h ([4]; aqueous with cosolvent or surfactant or cyclodextrin, 0.5% Methylcellulose, 25° C., 24 hours, final pH 6.04): > 2000 µg/mL
Visual observation ([4]; pH 1.2 HCl buffer, target 2 mg/mL): Clear solution
Visual observation ([4]; pH 3.0 Citrate buffer, target 2 mg/mL): Clear solution
Visual observation ([4]; pH 4.7 Acetate buffer, target 2 mg/mL): Clear solution
Visual observation ([4]; pH 6.8 Phosphate buffer, target 2 mg/mL): White suspension
solubility at 24 h ([4]; simulated gastric fluid, SGF (pH 2.0), 25° C., 24 hours, final pH 3.02): > 2000 µg/mL
solubility at 24 h ([4]; simulated gastric fluid, pH 1.2 HCl buffer, 25° C., 24 hours, target 2 mg/mL, final pH 1.75): > 2000 µg/mL
solubility at 24 h ([4]; FaSSIF (pH 6.5), 25° C., 24 hours, final pH 6.60): > 2000 µg/mL
solubility at 24 h ([4]; FeSSIF (pH 5.8), 25° C., 24 hours, final pH 5.97): > 2000 µg/mL
solubility at 24 h ([4]; Water, 25° C., 24 hours, final pH 6.04): > 2000 µg/mL
hygroscopicity (DVS evaluation, in words) ([5]; 90% RH, listed as Example 1): very low hygroscopicity
DVS remark (adsorption at 90% RH) ([5]; water adsorption at 90% RH, DVS): less than 2%
Purity % ([6]; 1-week): 99.18%
XRPD (physical stability) ([6]; 1-week): Almost similar (some changes
XRPD (physical stability) ([6]; 2-week): crystalline form was maintained; also recorded: Almost similar (some changes
Purity % ([6]; Initial): 99.29%
XRPD (physical stability) ([6]; Initial): Crystalline
body weight versus control group [7]: no significant difference
days when 100% alopecia areata was observed [7]: 84 days
